Common to all, as to format: in vivo
Series [1] relates to larvae of white-backed planthopper (Sogatella furcifera Horvath). The experiment in a line: Test Example 2: insecticidal activity against larvae of white-backed planthopper. Particulars: 168 h, 400 ppm, first-instar larvae, 25° C., seven days after treatment, read-out: Mortality. On the procedure: Insecticidal activity against larvae of white-backed planthopper (Sogatella furcifera Horvath).
Testing method: Five rice seedlings of the 1.5 leaf age were dipped in a test composition of 400 ppm concentration for 30 seconds. After air-drying, the seedlings were placed in a glass tube containing 1 ml of water and infested with five first-instar larvae of white-backed planthopper. The glass tube was left standing in a constant temperature cabinet at 25° C. and seven days after the treatment, dead-and-survival was observed. Mortality was calculated from the results of 3-replication test.

The test system of series [2] is larvae of green rice leafhopper (Nephotettix cincticeps Uhler). The experiment in a line: Test Example 5: activity against larvae of green rice leafhopper. Particulars: 168 h, 400 ppm, second-instar larvae, 25° C., seven days after treatment, read-out: Mortality. An outline of the steps: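 Rice seedlings at 1.5 leaf age dipped 30 seconds in 400 ppm test composition, air-dried, then infested with five second-instar larvae. Kept at 25° C; mortality scored seven days after treatment, three replicates.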

For series [3], the system named is larvae of brown planthopper (Nilaparvata lugens Stahl). In words: Test Example 1: insecticidal activity against larvae of brown planthopper. The settings on record: 168 h, third-instar larvae, 25° C., 7 days after treatment. The method, boiled down: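 Rice seedlings at 1.5-leaf stage were dipped for 30 s in a 400 ppm test composition, air-dried, and infested with third-instar N. lugens larvae. After holding at 25 °C, mortality was scored 5 or 7 days post-treatment from three replicates.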

For series [4], the system named is two-spotted spider mite (Tetranychus urticae Koch). The experiment in a line: Test Example 3: activity to two-spotted spider mite. Particulars: 48 h, 1,000 ppm, 2 days after treatment. The source says:
Activity to two-spotted spider mite (Tetranychus urticae Koch).
Testing method: Two-spotted spider mites were set free on the pot-planted soybean in a greenhouse. On the next day, a test composition of 1,000 ppm concentration was sprayed over the soybean by means of a spray gun. Two days or five days after the treatment, dead-and-survival was inspected to calculate the mortality.

For series [5], the system named is cirrus red mite (Panonychus citri McGregor). The experiment in a line: Test Example 4: activity to citrus red mite (Rothamstead method). Details: concentration or dose not given beside the values. Particulars: two days after treatment, 25° C.; 2880 min. On the procedure:
Activity to cirrus red mite (Panonychus citri McGregor).
Testing method: The test was performed by Rothamstead method. A test composition was sprayed by means of a spray gun over grapefruit leaves infested with citrus red mites. After air-drying the grapefruit was left standing in a constant temperature cabinet at 25° C. Two days after the treatment, the number of survived mites was counted to calculate the mortality.

The mortality is the percentage killed. `CC(C)N=C1SCN(C(C)C)C(=O)N1C` [Compound 18, 2-Isopropylimino-3-methyl-5-isopropyl-tetrahydro-1,3,5-thiadiazin-4-one]: the mortality at 400 ppm in series [1], in series [2] and in series [3] was 100% in each case. The mortality at 1000 ppm in series [4] turned out to be 80%. The compound also came in with a Mortality in series [5] of 100%.

With `CCN=C1SCN(C(C)C)C(=O)N1CC` [Compound 23], the figures for the mortality at 400 ppm in series [1], in series [2] and in series [3] were 100%, 80% and 100%, respectively. Besides, in series [4], the mortality at 1000 ppm amounted to 100%. This compound returned a Mortality in series [5] of 80%.

With `CCCCN1CSC(=NC(C)C)N(C)C1=O` [Compound 25], the mortality at 400 ppm in series [1], in series [2] and in series [3] was 100% in each case. This compound also came in with a mortality at 1000 ppm in series [4] of 100%. In series [5], this compound returned a Mortality of 80%.

With `CC(C)CN1CSC(=NC(C)C)N(C(C)C)C1=O` [Compound 27], the mortality at 400 ppm in series [1] worked out at 100%; in series [2], 80%; in series [3] it was 100%. Moreover, the mortality at 1000 ppm in series [4] was determined as 80%. This compound came in with a Mortality in series [5] of 100%.

As to `CCC(C)N1CSC(=NC(C)C)N(C)C1=O` (stereo not drawn) [Compound 29], the mortality at 400 ppm in series [1] amounted to 100%; in series [2] it was 80%; in series [3] it was 100%. The same compound yielded a mortality at 1000 ppm in series [4] of 100%. In series [5], this compound gave a Mortality of 100%.

For the compound `CN=C1SCN(C(C)(C)C)C(=O)N1C` [Compound 31, 2-Methylimino-3-methyl-5-t-butyl-tetrahydro-1,3,5-thiadiazin-4-one], the mortality at 400 ppm came out at 100% in series [1], 50% in series [2] and 80% in series [3]. Moreover, the mortality at 1000 ppm in series [4] amounted to 100%. For the same compound, in series [5], the Mortality came out at 100%.

Take `CCCN=C1SCN(C(C)(C)C)C(=O)N1C` [Compound 32]: the mortality at 400 ppm in series [1] was 100%; in series [2] it was 50%; in series [3], 100%. Further, in series [4], the mortality at 1000 ppm is 100%. The compound also yielded a Mortality in series [5] of 100%.

As to `CC(C)N=C1SCN(C(C)(C)C)C(=O)N1C` [Compound 33], the mortality at 400 ppm in series [1], in series [2] and in series [3] was 100% throughout. Moreover, the mortality at 1000 ppm in series [4] came to 100%. Moreover, the Mortality in series [5] was 100%.

As to `CCC(C)N=C1SCN(C(C)(C)C)C(=O)N1C` (stereo not drawn) [Compound 35], the mortality at 400 ppm was found to be 100% in series [1], 50% in series [2] and 100% in series [3]. For the same compound, the mortality at 1000 ppm in series [4] was 100%. In addition, the Mortality in series [5] was 100%.

`CN1C(=O)N(C(C)(C)C)CSC1=NC(C)(C)C` [Compound 37]: the results for the mortality at 400 ppm in series [1], in series [2] and in series [3] were 100%, 50% and 100%, respectively. The mortality at 1000 ppm in series [4] came to 100%. In series [5], the Mortality is given as 100%.

With `CCN1C(=O)N(C(C)(C)C)CSC1=NC(C)(C)C` [Compound 42], the mortality at 400 ppm in series [1] was determined as 100%; in series [2], 80%; in series [3], 100%. Further, in series [4], the mortality at 1000 ppm was 100%. In addition, the Mortality in series [5] came out at 100%.

In the case of `CC(C)N1C(=O)N(C(C)(C)C)CSC1=NC(C)(C)CC(C)(C)C` [Compound 48], the values for the mortality at 400 ppm in series [1], in series [2] and in series [3] were 100%, 80% and 100%, respectively. Further, the mortality at 1000 ppm in series [4] turned out to be 100%. In series [5], this compound came in with a Mortality of 100%.

With `CCCCCCN1CSC(=NC(C)C)N(C(C)C)C1=O` [Compound 51], the mortality at 400 ppm came to 100% in series [1], 50% in series [2] and 100% in series [3]. The mortality at 1000 ppm in series [4] was determined as 100%. Also, in series [5], the Mortality worked out at 50%.

`CN1C(=O)N(C2CCCCC2)CSC1=NC(C)(C)C` [Compound 53]: the mortality at 400 ppm in series [1] came out at 80%; in series [2], 50%; in series [3], 80%. Also, the mortality at 1000 ppm in series [4] turned out to be 100%. Further, the Mortality in series [5] was 100%.

In the case of `CCCN=C1SCN(Cc2ccccc2)C(=O)N1CCC` [Compound 56], the mortality at 400 ppm in series [1] was determined as 80%; in series [2], 50%; in series [3], 80%. This compound came in with a mortality at 1000 ppm in series [4] of 100%. This compound registered a Mortality in series [5] of 100%.

Take `CC(C)N=C1SCN(C(C)(C)CC(C)(C)C)C(=O)N1C` [Compound 59]: the mortality at 400 ppm in series [1], in series [2] and in series [3] was 100% each time. In series [4], the mortality at 1000 ppm is 100%. The Mortality in series [5] worked out at 100%.

Consider `CN1C(=O)N(C(C)(C)CC(C)(C)C)CSC1=NC(C)(C)C` [Compound 63, 2-t-Butylimino-3-methyl-5-(1,1,3,3-tetramethyl)-butyl-tetrahydro-1,3,5-thiadiazin-4-one], for which the figures for the mortality at 400 ppm in series [1], in series [2] and in series [3] were 100%, 80% and 100%, respectively. Further, the mortality at 1000 ppm in series [4] stood at 80%. The Mortality in series [5] came out at 50%.

For `CCCCCCCCN1CSC(=NC(C)C)N(C)C1=O` [Compound 65], the figures for the mortality at 400 ppm in series [1], in series [2] and in series [3] were 100%, 50% and 100%, respectively. Moreover, in series [4], the mortality at 1000 ppm was determined as 100%. In series [5], this compound gave a Mortality of 100%.

For `CN=C1SCN(C(C)C)C(=O)N1c1ccccc1` [Compound 66, 2-Methylimino-3-phenyl-5-isopropyltetrahydro-1,3,5-thiadiazin-4-one], the mortality at 400 ppm in series [1] turned out to be 100%; in series [2], 80%; in series [3] it was 100%. Besides, the mortality at 1000 ppm in series [4] is 100%. The Mortality in series [5] came to 50%.

For `CN=C1SCN(C(C)C)C(=O)N1c1ccc(Cl)cc1C` [Compound 68], the results for the mortality at 400 ppm in series [1], in series [2] and in series [3] were 100%, 50% and 100%, respectively. The compound also displayed a mortality at 1000 ppm in series [4] of 100%. The compound further returned a Mortality in series [5] of 50%.

In the case of `CN=C1SCN(C(C)(C)C)C(=O)N1c1ccccc1` [Compound 69], the mortality at 400 ppm in series [1], in series [2] and in series [3] was 100% throughout. In addition, the mortality at 1000 ppm in series [4] turned out to be 100%. This compound also displayed a Mortality in series [5] of 80%.

Consider `CN=C1SCN(C(C)(C)C)C(=O)N1c1ccc(F)cc1` [Compound 71], for which the mortality at 400 ppm was 80% in series [1], 50% in series [2] and 80% in series [3]. Moreover, the mortality at 1000 ppm in series [4] is 100%. This compound also gave a Mortality in series [5] of 50%.

Take `Cc1ccc(N=C2SCN(C(C)(C)C)C(=O)N2C)cc1` [Compound 72, 2-p-Tolylimino-3-methyl-5-t-butyl-tetrahydro-1,3,5-thiadiazin-4-one]: the mortality at 400 ppm came out at 100% in series [1], 80% in series [2] and 80% in series [3]. Besides, the mortality at 1000 ppm in series [4] came out at 100%. This compound yielded a Mortality in series [5] of 80%.

As to `CC(C)N=C1SCN(C(C)(C)C)C(=O)N1c1ccccc1` [Compound 75], the mortality at 400 ppm in series [1] came to 100%; in series [2] it was 50%; in series [3] it was 100%. The compound further displayed a mortality at 1000 ppm in series [4] of 80%. Also, the Mortality in series [5] worked out at 50%.

In the case of `CCN=C1SCN(C(C)(C)C)C(=O)N1c1ccccc1C` [Compound 80, 2-Ethylimino-3-o-tolyl-5-t-butyl-tetrahydro-1,3,5-thiadiazin-4-one], the mortality at 400 ppm in series [1] worked out at 100%; in series [2], 50%; in series [3], 100%. In series [4], this compound yielded a mortality at 1000 ppm of 80%. In series [5], this compound yielded a Mortality of 100%.

On to `CN=C1SCN(C(C)(C)C)C(=O)N1c1ccc(Cl)cc1C` [Compound 82], for which the mortality at 400 ppm in series [1] is 100%; in series [2], 80%; in series [3], 100%. In series [4], this compound came in with a mortality at 1000 ppm of 100%. In series [5], this compound registered a Mortality of 100%.

`COc1ccc(Cl)cc1N1C(=O)N(Cc2ccccc2)CSC1=NC(C)C` [Compound 87]: the mortality at 400 ppm in series [1] was 100%; in series [2], 80%; in series [3], 100%. In series [4], this compound gave a mortality at 1000 ppm of 100%. In series [5], the Mortality was determined as 100%.

Values taken from patent publication US4159328A, “Tetrahydro-1,3,5-thiadiazin-4-one derivative” (Nihon Nohyaku Co., Ltd., priority 1977, dated 1979).
